This experiment concerns CD8F1 mice, subcutaneous mammary adenocarcinoma, T/C%. The experiment is described as follows: NCI In Vivo Anticancer Drug Screen. Data for tumor model Mammary Adenocarcinoma CD8F1 (subcutaneous) in CD8F1. The note with it: higher = larger tumour. The gist of the method: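 Tumor-bearing mice, transplantable model; readout survival or tumor size; value = treated (T) / vehicle control (C).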

Setting [1] is: endpoint: median tumor weight (est.), dose: 25.0 mg/kg/injection, schedule: Q07DX005 (ip), vehicle: Klucel (hydroxypropylcellulose) (HPC).
Setting [2] is: endpoint: median tumor weight (est.), dose: 25.0 mg/kg/injection, schedule: Q07DX005 (ip), vehicle: saline.
[3] abbreviates: endpoint: median tumor weight (est.), dose: 100.0 mg/kg/injection, schedule: Q07DX005 (ip), vehicle: Klucel (hydroxypropylcellulose) (HPC).
[4] abbreviates: endpoint: median tumor weight (est.), dose: 100.0 mg/kg/injection, schedule: Q07DX005 (ip), vehicle: saline.
[5] abbreviates: endpoint: median tumor weight (est.), dose: 200.0 mg/kg/injection, schedule: Q07DX005 (ip), vehicle: Klucel (hydroxypropylcellulose) (HPC).
Where [6] appears, read: endpoint: median tumor weight (est.), dose: 6.25 mg/kg/injection, schedule: Q07DX005 (ip), vehicle: Klucel (hydroxypropylcellulose) (HPC).
[7] abbreviates: endpoint: median tumor weight (est.), dose: 12.5 mg/kg/injection, schedule: Q07DX005 (ip), vehicle: Klucel (hydroxypropylcellulose) (HPC).
Setting [8] is: endpoint: median tumor weight (est.), dose: 50.0 mg/kg/injection, schedule: Q07DX005 (ip), vehicle: Klucel (hydroxypropylcellulose) (HPC).

Each structure is given as a SMILES string. Values joined by “and” are separate entries in the source; they are usually repeats but may differ in a detail not shown here. Equal entries are not always repeated. Inconclusive results are not listed.

As to `OC(CBr)C(O)C(O)C(O)CBr` (stereo not drawn), the T/C (endpoint: mean tumor weight, dose: 100.0 mg/kg/injection, schedule: Q01DX009 (ip), vehicle: saline) was 164 % of control; the T/C (endpoint: mean tumor weight, dose: 150.0 mg/kg/injection, schedule: Q01DX009 (ip), vehicle: saline) was 89 % of control; the T/C (endpoint: mean tumor weight, dose: 200.0 mg/kg/injection, schedule: Q01DX009 (ip), vehicle: saline) was 69 % of control; the T/C (endpoint: mean tumor weight, dose: 300.0 mg/kg/injection, schedule: Q01DX009 (ip), vehicle: saline) was 49 % of control; the T/C (endpoint: mean tumor weight, dose: 400.0 mg/kg/injection, schedule: Q01DX009 (ip), vehicle: saline) was 53 % of control; the T/C (endpoint: mean tumor weight, dose: 500.0 mg/kg/injection, schedule: Q01DX009 (ip), vehicle: saline) is 38 % of control. Also, the T/C reads like this: under setting [1], 49 % of control; under setting [2], 84 % of control; (endpoint: median tumor weight (est.), dose: 50.0 mg/kg/injection, schedule: Q07DX005 (ip), vehicle: saline) 32 % of control; under setting [3], 31 % of control; under setting [4], 41 % of control; under setting [5], 2 % of control. The T/C (endpoint: median tumor weight (est.), dose: 200.0 mg/kg/injection, schedule: Q07DX005 (ip), vehicle: saline) was 28 % of control; the T/C (endpoint: median tumor weight (est.), dose: 400.0 mg/kg/injection, schedule: Q07DX005 (ip), vehicle: saline) is 7 % of control; the T/C (endpoint: median tumor weight (est.), dose: 1200.0 mg/kg/injection, schedule: Q07DX005 (ip), vehicle: Klucel (hydroxypropylcellulose) (HPC)) is 13 % of control; the T/C (endpoint: median tumor weight change, dose: 150.0 mg/kg/injection, schedule: Q01DX001 (ip), vehicle: Klucel (hydroxypropylcellulose) (HPC)) is 95 % of control; the T/C (endpoint: median tumor weight change, dose: 300.0 mg/kg/injection, schedule: Q01DX001 (ip), vehicle: Klucel (hydroxypropylcellulose) (HPC)) is 39 % of control; the T/C (endpoint: median tumor weight change, dose: 600.0 mg/kg/injection, schedule: Q01DX001 (ip), vehicle: Klucel (hydroxypropylcellulose) (HPC)) is 51 % of control.

As for `C/C=C/C=C/c1cc2cc3c(c(O)c2c(=O)[nH]1)C1(CC3)C(O)=c2c(=O)c3c(=O)cc(OC)c(=O)c=3c(=O)c2=C1O` (stereo not drawn), the T/C is, setting by setting: (endpoint: median tumor weight change, dose: 2.5 mg/kg/injection, schedule: Q01DX001 (ip), vehicle: DMSO) 106 % of control; (endpoint: median tumor weight change, dose: 5.0 mg/kg/injection, schedule: Q01DX001 (ip), vehicle: DMSO) 79 % of control.

With `BrC1c2cccc3cccc(c23)C1Br` (stereo not drawn), the T/C reads like this: (endpoint: median tumor weight (est.), dose: 12.5 mg/kg/injection, schedule: Q07DX005 (ip), vehicle: saline with Tween-80) 113 % of control; (endpoint: median tumor weight (est.), dose: 25.0 mg/kg/injection, schedule: Q07DX005 (ip), vehicle: saline with Tween-80) 88 % of control; (endpoint: median tumor weight (est.), dose: 50.0 mg/kg/injection, schedule: Q07DX005 (ip), vehicle: saline with Tween-80) 111 % of control; (endpoint: median tumor weight (est.), dose: 100.0 mg/kg/injection, schedule: Q07DX005 (ip), vehicle: saline with Tween-80) 117 % of control; (endpoint: median tumor weight (est.), dose: 200.0 mg/kg/injection, schedule: Q07DX005 (ip), vehicle: saline with Tween-80) 85 % of control.

As for `CC1CN1P1(N2CC2C)=NP(N2CC2C)(N2CC2C)=NP(N2CC2C)(N2CC2C)=N1` (stereo not drawn), the T/C runs as follows: (endpoint: mean tumor weight, dose: 12.5 mg/kg/injection, schedule: Q04DX005 (ip), vehicle: saline) 61 % of control; (endpoint: mean tumor weight, dose: 25.0 mg/kg/injection, schedule: Q04DX005 (ip), vehicle: saline) 97 % of control; (endpoint: mean tumor weight, dose: 25.0 mg/kg/injection, schedule: Q07DX005 (ip), vehicle: saline) 119 % of control; (endpoint: mean tumor weight, dose: 50.0 mg/kg/injection, schedule: Q04DX005 (ip), vehicle: saline) 66 % of control; (endpoint: mean tumor weight, dose: 50.0 mg/kg/injection, schedule: Q07DX005 (ip), vehicle: saline) 92 % of control; (endpoint: mean tumor weight, dose: 100.0 mg/kg/injection, schedule: Q04DX005 (ip), vehicle: saline) 13 % of control. Also, the T/C runs as follows: (endpoint: mean tumor weight, dose: 100.0 mg/kg/injection, schedule: Q07DX005 (ip), vehicle: saline) 49 % of control; under setting [2], 70 % of control; under setting [4], 6 % of control and 11 % of control.

Turning to `N#CC(C#N)=C/C=C/c1cccc([N+](=O)[O-])c1`, the T/C is 122 % of control (endpoint: median tumor weight (est.), dose: 3.12 mg/kg/injection, schedule: Q07DX005 (ip), vehicle: Klucel (hydroxypropylcellulose) (HPC)); 239 % of control under setting [6]; 169 % of control under setting [7]; 152 % of control under setting [1].

Regarding `C[C@H]1C[C@@H]2[C@H]([C@@H](O)C[C@@]3(C)[C@H]2CC[C@]3(O)C(=O)CO)[C@@]2(C)C=CC(=O)C=C12`, the T/C runs as follows: under setting [6], 70 % of control; under setting [7], 63 % of control; under setting [1], 63 % of control; under setting [8], 60 % of control; under setting [3], 53 % of control; under setting [5], 28 % of control.

For the compound `Oc1c(Cl)cc(Cl)cc1C1N2CCCCC2C2c3cccn3-c3ccccc3N21` (stereo not drawn), the T/C by setting is: (endpoint: median tumor weight change, dose: 125.0 mg/kg/injection, schedule: Q01DX001 (ip), vehicle: saline with Tween-80) 69 % of control; (endpoint: median tumor weight change, dose: 250.0 mg/kg/injection, schedule: Q01DX001 (ip), vehicle: saline with Tween-80) 85 % of control; (endpoint: median tumor weight change, dose: 500.0 mg/kg/injection, schedule: Q01DX001 (ip), vehicle: saline with Tween-80) 58 % of control; (endpoint: median tumor weight change, dose: 1000.0 mg/kg/injection, schedule: Q01DX001 (ip), vehicle: saline with Tween-80) 68 % of control; (endpoint: median tumor weight change, dose: 2000.0 mg/kg/injection, schedule: Q01DX001 (ip), vehicle: saline with Tween-80) 79 % of control.

Take `Nc1ncn(C2CC(O)C(CO)O2)c(=O)n1` (stereo not drawn): the T/C by setting is: (endpoint: median tumor weight (est.), dose: 0.37 mg/kg/injection, schedule: Q07DX005 (ip), vehicle: saline) 37 % of control; (endpoint: median tumor weight (est.), dose: 0.75 mg/kg/injection, schedule: Q07DX005 (ip), vehicle: saline) 25 % of control; (endpoint: median tumor weight (est.), dose: 1.5 mg/kg/injection, schedule: Q07DX005 (ip), vehicle: saline) 9 % of control; (endpoint: median tumor weight (est.), dose: 3.0 mg/kg/injection, schedule: Q07DX005 (ip), vehicle: saline) 10 % of control.

With `CC(C)CC(=O)NC(C(=O)NC(C(=O)NC(CC(C)C)C(O)CC(=O)NC(C)C(=O)NC(CC(C)C)C(O)CC(=O)O)C(C)C)C(C)C` (stereo not drawn), for the setting “endpoint: median tumor weight change, dose: 62.5 mg/kg/injection, schedule: Q01DX001 (ip), vehicle: Klucel (hydroxypropylcellulose) (HPC)”, the T/C is 97 % of control.

Turning to `O=C(O)CSc1nc(-c2ccccc2)c(-c2ccccc2)n1-c1ccccn1`, the T/C is, setting by setting: (endpoint: median tumor weight (est.), dose: 12.5 mg/kg/injection, schedule: Q07DX005 (ip), vehicle: water) 63 % of control and 72 % of control; (endpoint: median tumor weight (est.), dose: 25.0 mg/kg/injection, schedule: Q07DX005 (ip), vehicle: water) 217 % of control and 78 % of control; (endpoint: median tumor weight (est.), dose: 200.0 mg/kg/injection, schedule: Q07DX005 (ip), vehicle: water) 64 % of control.

Take `Cc1nn(CCO)c(C)c1N=[N+]([O-])c1c(C)nn(CCO)c1C`: the T/C under setting [6] was 57 % of control; the T/C under setting [7] was 63 % of control; the T/C under setting [1] is 91 % of control; the T/C under setting [8] was 104 % of control; the T/C under setting [3] was 43 % of control.

As for `C1OC1CO[C@@H]1CO[C@H]2[C@@H]1OC[C@H]2OCC1CO1` (stereo partly drawn), the T/C is 44 % of control under setting [7]; 53 % of control under setting [1]; 108 % of control (endpoint: median tumor weight (est.), dose: 25.0 mg/kg/injection, schedule: Q07DX005 (ip), vehicle: suspension in saline); 84 % of control under setting [8]; 64 % of control (endpoint: median tumor weight (est.), dose: 50.0 mg/kg/injection, schedule: Q07DX005 (ip), vehicle: suspension in saline); 108 % of control under setting [3]. Further, the T/C was 48 % of control (endpoint: median tumor weight (est.), dose: 100.0 mg/kg/injection, schedule: Q07DX005 (ip), vehicle: suspension in saline); 57 % of control under setting [5]; 51 % of control (endpoint: median tumor weight (est.), dose: 200.0 mg/kg/injection, schedule: Q07DX005 (ip), vehicle: suspension in saline); 16 % of control (endpoint: median tumor weight (est.), dose: 400.0 mg/kg/injection, schedule: Q07DX005 (ip), vehicle: Klucel (hydroxypropylcellulose) (HPC)); 9 % of control (endpoint: median tumor weight (est.), dose: 400.0 mg/kg/injection, schedule: Q07DX005 (ip), vehicle: suspension in saline).

For the origin of these results see PubChem BioAssay AID220 (DTP/NCI, 2004).
